According to patent US12171760B2, “Use of glucocorticoid receptor modulators to potentiate checkpoint inhibitors” (Corcept Therapeutics Incorporated, priority 2016, dated 2024):

Tests used:
[1] = tested on: breast cancer; test: Treating a breast cancer patient with the combination therapy (tumor load by enhanced magnetic resonance imaging); type: in vivo, human; details: CORT125134 200 mg once a day for eight weeks with pembrolizumab 3 mg/kg every 2 weeks
Protocol: A patient suffering from breast cancer is treated with pembrolizumab at a dose of 3 mg/kg every 2 weeks and CORT125134 at a dose of 200 mg once a day for eight weeks. Their tumor load is monitored using enhanced magnetic resonance imaging before, during and after the treatment.

[2] = tested on: mouse MC38 cancer cells; test: MC38 tumor growth in mice, combination of CORT125134 and anti PD-1; type: in vivo; details: CORT125134 30 mg/kg orally daily in combination with mouse anti PD-1 antibody (clone RPM1-14, 10 mg/kg) i.p. twice a week; C57BL/6 mice, s.c. MC38 tumors; FIG. 1
Protocol: Suspensions of mouse MC38 cancer cells were injected subcutaneously into the left flank of 5-6 week old immunocompetent female mice (C57BL/6), 1 million cells per mouse. Tumors were allowed to grow until they reach a volume of 100 mm^3. Mice were then grouped into three groups, ten (10) per group. Group I was dosed with the anti-PD-1 vehicle (PBS, 10 ml/kg) i. p. twice a week and the CORT125134 vehicle p.o. (10% DMSO, 0.1% Tween 80 and 89.9% HPMC (0.5%), 10 ml/kg) daily. Group II was dosed with the mouse anti PD-1 antibody (clone RPM1-14, 10 mg/kg) i. p. twice a week. Group III was dosed with the mouse anti PD-1 antibody (clone RPM1-14, 10 mg/kg) i. p. twice a week and CORT125134 (a SGRM) (30 mg/kg) orally on a daily basis. The longest (L) and shortest (S) diameters of the tumors were measured three times a week with electronic calipers and tumor volume was calculated using the formula for an ellipsoid sphere: S^2×L×(0.5). The tumor growth data are shown in FIG. 1, in which the mean tumor volume as compared to the mean pre-dosing tumor volume for each group of mice is plotted against the number of days of tumor growth since initiation of the treatment.

[3] = tested on: mouse CT26 cancer cells; test: CT26 tumor growth in mice, combination of CORT125134 or CORT125281 and anti CTLA4; type: in vivo; details: SGRM 30 mg/kg orally daily in combination with mouse anti CTLA4 antibody (clone 9D9, 10 mg/kg) i.p. twice a week; C57BL/6 mice, s.c. CT26 tumors; FIG. 3
Protocol: Suspensions of mouse CT26 cancer cells were injected subcutaneously into the left flank of 6-7 week old immunocompetent female mice (C57BL/6), ½ million cells per mouse. Tumors were allowed to grow until they reached a volume of 50-100 mm^3. Mice were then grouped into three groups, ten (10) per group. Group I was dosed with the anti-CTLA4 vehicle (PBS, 10 ml/kg) i. p. twice a week and the CORT125134 vehicle p.o. (10% DMSO, 0.1% Tween 80 and 89.9% HPMC (0.5%), 10 ml/kg) daily. Group II was dosed with the mouse anti CTLA4 antibody (clone 9D9, 10 mg/kg) i. p. twice a week. Group III was dosed with the mouse anti CTLA4 antibody (clone 9D9, 10 mg/kg) i. p. twice a week and CORT125134 (a SGRM) (30 mg/kg) orally on a daily basis. Group IV was dosed with the mouse anti CTLA4 antibody (clone 9D9, 10 mg/kg) i. p. twice a week and CORT125281 (a SGRM) (30 mg/kg) orally on a daily basis.
(§1) The longest (L) and shortest (S) diameters of the tumors were measured three times a week with electronic calipers and tumor volume was calculated using the formula for an ellipsoid sphere: S^2×L×(0.5). The tumor growth data are shown in FIG. 3, in which the mean tumor volume for each group is plotted against the number of days of tumor growth since initiation of the treatment.

[4] = tested on: mouse A20 cancer cells; test: A20 tumor growth in mice, combination of CORT125281 and anti PD-1; type: in vivo; details: CORT125281 30 mg/kg orally daily in combination with mouse anti PD-1 antibody (clone RPM1-14, 10 mg/kg) i.p. twice a week; C57BL/6 mice, s.c. A20 tumors; FIG. 2
Protocol: Suspensions of mouse A20 cancer cells were injected subcutaneously into the left flank of 5-6 week old immunocompetent female mice (C57BL/6), ½ million cells per mouse. Tumors were allowed to grow until they reached a volume of 100 mm^3. Mice were then grouped into three groups, ten (10) per group. Group I was dosed with the anti-PD-1 vehicle (PBS, 10 ml/kg) i. p. twice a week and the CORT125281 vehicle p.o. (10% DMSO, 0.1% Tween 80 and 89.9% HPMC (0.5%), 10 ml/kg) daily. Group II was dosed with the mouse anti PD-1 antibody (clone RPM1-14, 10 mg/kg) i. p. twice a week. Group III was dosed with the mouse anti PD-1 antibody (clone RPM1-14, 10 mg/kg) i. p. twice a week and CORT125281 (a SGRM) (30 mg/kg) orally on a daily basis.
as §1, with “2,” for “3,”, “group of mice” for “group”

Q: With Cn1cc(S(=O)(=O)N2CCC3=Cc4c(cnn4-c4ccc(F)cc4)C[C@]3(C(=O)c3cc(C(F)(F)F)ccn3)C2)cn1 [CORT125134, (R)-(1-(4-fluorophenyl)-6-((1-methyl-1H-pyrazol-4-yl)sulfonyl)-4,4a,5,6,7,8-hexahydro-1H-pyrazolo[3,4-g]isoquinolin-4a-yl)(4-(trifluoromethyl)pyridin-2-yl)methanone] as the compound, how does the “reduction of the size of the tumor at the end of the treatment period” value [1] read?
A: more than 20%

Q: And the “reducing tumor growth (mean tumor volume as compared to the mean pre-dosing tumor volume)” value [2]?
A: superior to both the anti PD-1 group and the vehicle group in reducing tumor growth

Q: And the “reducing tumor growth (mean tumor volume)” value [3]?
A: superior to both the anti CTLA4 group and the vehicle group in reducing tumor growth

Q: Which “reducing tumor growth (mean tumor volume)” value [4] does the source give for Cn1ncc(S(=O)(=O)N2CC[C@H]3Cc4c(cnn4-c4ccc(F)cc4)C[C@]3(C(=O)c3cc(C(F)(F)F)ccn3)C2)n1 [CORT125281, ((4aR,8aS)-1-(4-fluorophenyl)-6-((2-methyl-2H-1,2,3-triazol-4-yl)sulfonyl)-4,4a,5,6,7,8,8a,9-octahydro-1H-pyrazolo[3,4-g]isoquinolin-4a-yl)(4-(trifluoromethyl)pyridin-2-yl)methanone] here?
A: superior to both the anti PD-1 group and the vehicle group in reducing tumor growth

Q: What about the “reducing tumor growth (mean tumor volume)” value [3] of the same compound?
A: superior to both the anti CTLA4 group and the vehicle group in reducing tumor growth
